Inconclusive results and toxic doses are left out.

This assay deals with BDF1 mice, B16 melanoma ip, median survival T/C. In words: NCI In Vivo Anticancer Drug Screen. Data for tumor model B16 Melanoma (intraperitoneal) in B6D2F1 (BDF1) mice. The settings on record: endpoint: median survival time, higher = longer survival. In outline: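 Vehicle-treated animals serve as the reference (C); treated animals (T) are scored for survival or tumor size after tumor transplantation.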

The mark [1] stands for this setting: dose: 50.0 mg/kg/injection, schedule: Q01DX009 (ip), vehicle: saline with Tween-80.
Setting [2] is: dose: 50.0 mg/kg/injection, schedule: Q04DX003 (ip), vehicle: saline with Tween-80.
Where [3] appears, read: dose: 100.0 mg/kg/injection, schedule: Q04DX003 (ip), vehicle: saline with Tween-80.
Where [4] appears, read: dose: 25.0 mg/kg/injection, schedule: Q04DX003 (ip), vehicle: saline with Tween-80.

`CC(C)C1CC2CCC3C(C)(C(=O)O)CCCC3(C)C2CC1CO` (stereo not drawn): the T/C runs as follows: under setting [1], 99 % of control; under setting [2], 100 % of control; (dose: 100.0 mg/kg/injection, schedule: Q01DX009 (ip), vehicle: saline with Tween-80) 96 % of control; under setting [3], 97 % of control; (dose: 200.0 mg/kg/injection, schedule: Q01DX009 (ip), vehicle: saline with Tween-80) 94 % of control; (dose: 200.0 mg/kg/injection, schedule: Q04DX003 (ip), vehicle: saline with Tween-80) 90 % of control.

As to `C=CCCCCCCCCC(=O)N(CCOC)CCOC`, the T/C by setting is: (dose: 25.0 mg/kg/injection, schedule: Q01DX009 (ip), vehicle: saline with Tween-80) 115 % of control; under setting [4], 97 % of control; under setting [1], 102 % of control; under setting [2], 91 % of control; under setting [3], 89 % of control.

On to `C1CC[N-]CC1.[Cl][Pt+2][Cl].[NH-]C1CC1`, for which the T/C was 105 % of control (dose: 3.12 mg/kg/injection, schedule: Q01DX009 (ip), vehicle: water); 151 % of control (dose: 3.13 mg/kg/injection, schedule: Q01DX009 (ip), vehicle: water); 152 % of control (dose: 6.25 mg/kg/injection, schedule: Q01DX009 (ip), vehicle: water); 119 % of control (dose: 12.5 mg/kg/injection, schedule: Q01DX009 (ip), vehicle: water).

For `CCCCCCCCCC(=O)N(C)OC`, the T/C runs as follows: (dose: 12.5 mg/kg/injection, schedule: Q04DX003 (ip), vehicle: saline with Tween-80) 100 % of control; under setting [4], 104 % of control; under setting [2], 100 % of control.

The values above are taken from PubChem BioAssay AID192 (DTP/NCI, 2004).
